Experimental data from PMC9972884 (Biochemistry, 2009).
pIC50: −log10 of the molar value. Read-outs that look alike come from different tables or passages of the source.

Key:
[1] = biological target: T1, GST-hPPARα (recombinant human PPARα) (Homo sapiens, UniProt Q07869); assay: Radioligand competition scintillation proximity binding assay, PPARα
T1 sequence (Q07869 1-468): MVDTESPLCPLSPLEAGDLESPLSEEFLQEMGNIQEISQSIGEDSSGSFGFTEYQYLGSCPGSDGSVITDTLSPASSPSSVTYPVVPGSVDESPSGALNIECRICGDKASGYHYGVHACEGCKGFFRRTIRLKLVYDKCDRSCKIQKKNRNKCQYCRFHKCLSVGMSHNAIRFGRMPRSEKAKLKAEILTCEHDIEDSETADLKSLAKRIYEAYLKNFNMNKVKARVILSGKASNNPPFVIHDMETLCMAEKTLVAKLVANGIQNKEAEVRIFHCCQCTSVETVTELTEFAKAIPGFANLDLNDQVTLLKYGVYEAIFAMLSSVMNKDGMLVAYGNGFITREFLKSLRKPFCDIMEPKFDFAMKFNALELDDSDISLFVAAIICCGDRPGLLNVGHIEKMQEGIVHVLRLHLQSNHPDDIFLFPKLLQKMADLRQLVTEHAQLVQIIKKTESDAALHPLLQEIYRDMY

PPARγ = biological target: T2, PPARγ (Homo sapiens, UniProt P37231); type: cell-based; conditions: for effect on induction by rosiglitazone (coincubation): 0–5 µM NO2-LA isomer with fixed 0.1 µM rosiglitazone; for mean induction as a percentage of induction by 0.1 µM rosiglitazone (100%): ligands at 5 µM, mean of 6–18 determinations ± SEM; for agonist (full or partial): relative to rosiglitazone, defined as full agonist; for PPARγ activation (in words): concentrations as high as 100 µM
T2 sequence (P37231 1-477 isoform P37231-2): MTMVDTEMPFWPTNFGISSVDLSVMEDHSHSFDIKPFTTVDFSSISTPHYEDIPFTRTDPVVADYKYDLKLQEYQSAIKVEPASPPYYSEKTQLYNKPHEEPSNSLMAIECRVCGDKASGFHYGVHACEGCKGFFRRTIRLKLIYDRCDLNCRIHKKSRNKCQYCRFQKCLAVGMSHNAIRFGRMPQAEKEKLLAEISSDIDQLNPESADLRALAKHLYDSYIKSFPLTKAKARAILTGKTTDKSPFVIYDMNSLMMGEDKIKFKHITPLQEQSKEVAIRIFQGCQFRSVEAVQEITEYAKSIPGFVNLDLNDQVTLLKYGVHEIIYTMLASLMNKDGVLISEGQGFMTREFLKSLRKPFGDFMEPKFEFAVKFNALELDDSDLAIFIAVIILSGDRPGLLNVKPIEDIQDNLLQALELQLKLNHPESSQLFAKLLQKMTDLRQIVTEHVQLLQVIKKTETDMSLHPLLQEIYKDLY

[2] = biological target: T3, GST-hPPARγ (recombinant human PPARγ) (Homo sapiens, UniProt P37231); assay: Radioligand competition scintillation proximity binding assay, PPARγ
T3 sequence (P37231 1-505): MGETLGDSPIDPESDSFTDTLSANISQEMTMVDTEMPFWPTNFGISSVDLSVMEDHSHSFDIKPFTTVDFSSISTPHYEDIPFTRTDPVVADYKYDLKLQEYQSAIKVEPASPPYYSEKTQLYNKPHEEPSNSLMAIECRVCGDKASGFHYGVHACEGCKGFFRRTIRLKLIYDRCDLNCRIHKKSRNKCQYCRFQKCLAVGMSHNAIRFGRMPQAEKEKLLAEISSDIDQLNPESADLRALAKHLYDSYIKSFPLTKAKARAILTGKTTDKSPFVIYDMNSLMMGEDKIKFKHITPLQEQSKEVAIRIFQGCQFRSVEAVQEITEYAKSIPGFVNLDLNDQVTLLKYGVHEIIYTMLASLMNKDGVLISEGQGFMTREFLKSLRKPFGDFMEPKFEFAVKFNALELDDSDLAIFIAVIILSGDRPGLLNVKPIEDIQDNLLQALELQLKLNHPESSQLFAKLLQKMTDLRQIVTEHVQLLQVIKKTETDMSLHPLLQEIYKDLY

Structure (SMILES) | apparent affinity for PPARα (in words) [1] | effect on induction by rosiglitazone (coincubation) (PPARγ) | mean induction as a percentage of induction by 0.1 µM rosiglitazone (100%) (PPARγ) | agonist (full or partial) (PPARγ) | agonist (full or partial) (PPARγ; listed as 12-NO2) | agonist (full or partial) (PPARγ; listed as 12-NO2-LA) | pIC50 [2] | pIC50 [1] | EC50 fold higher than for 12-NO2-LA (PPARγ) | maximum level of PPARγ activation as % of that of the 12-NO2 isomer (PPARγ) | agonist (full or partial) (PPARγ; listed as 13-NO2-LA) | binding affinity for PPARγ (in words) [2] | PPARγ activation (in words) (PPARγ) | PPARγ activation (in words) (PPARγ; listed as Linoleic acid)
CCCCC/C=C(\C/C=C\CCCCCCCC(=O)O)[N+](=O)[O-] [12-NO2-linoleic acid, (9Z,12E)-12-nitrooctadeca-9,12-dienoic acid] | very low | less pronounced | 76 ± 9% | partial | nearly full agonist activity | partial agonists | – | – | – | – | – | – | – | –
CCCCC/C(=C\C/C=C\CCCCCCCC(=O)O)[N+](=O)[O-] [13-NO2-linoleic acid, (9Z,12E)-13-nitrooctadeca-9,12-dienoic acid] | – | significantly reduced the level of induction by rosiglitazone | 41 ± 5% | partial | – | – | 6.36 | < 4.82 | more than 10 fold | ~ 50% | partial agonists | – | – | –
CCCCC/C=C\C/C=C\CCCCCCCC(=O)O [linoleic acid, (9Z,12Z)-octadeca-9,12-dienoic acid, reference compound] | – | – | – | – | – | – | 4.97 | < 4.82 | – | – | – | very low affinity | negligible PPARγ activation | does not support activation
